Patent publication US6380229B1, “2-(N-cyanoimino)thiazolidin-4-one derivatives” (Fujimoto Co., Ltd., priority 2001, dated 2002)

Tests used:
[1] = system: high cholesterol-fed hamsters; test: Lipid lowering effects in high cholesterol-fed hamsters; format: in vivo, Male Syrian hamsters; details: serum
Method: Lipid Lowering Effects in High Cholesterol-fed Hamsters
The compounds were tested for lipid lowering effects in high cholesterol-fed hamsters in accordance with the method described in Jpn Pharmacol Ther, 23 (suppl 4), s1047-1053 (1995). Male Syrian hamsters were fed the high cholesterol diet supplemented with 1% cholesterol and 10% coconut oil for 3 weeks. Before drug administration, blood was collected from the orbital venous plexus under ether anesthesia, and a serum total cholesterol level was measured. […] The designated doses of the compound of Example 1 or Bezafibrate were administrated to test groups and the vehicle solution was given to the control group orally once a day for 7 days under the high cholesterol diet feeding. The intact group of animals were fed normal diet. After 4 hours of the final administration, blood was collected by cardiac puncture, and the total cholesterol and triglyceride levels in the serum were determined by the enzymatic method.
The reduction rate (%) was calculated according to the following equation: [formula]

[2] = system: Salmonella typhimurium TA100 and TA98; test: Mutagenicity test (reverse mutation test); format: cell-based; details: absence or presence of S9 mix
Description: The mutagenicity of the compound of Example 1 was examined by a reverse mutation test using Salmonella typhimurium TA100 and TA98 in the absence or presence of S9 mix.

[3] = system: fructose-induced hyperlipidemic rats; test: Hypotriglyceridemic activity in fructose-induced hyperlipidemic rats; format: in vivo, Sprague Dawley rats; details: serum, 30 mg/kg p.o. once a day for 7 days, blood 2 hours after final administration; for inhibition in vivo at 30 mg/kg: Rattus norvegicus, po, read-out: Triglyceride (% Reduction)
Method: Hypotriglyceridemic Activity in Fructose-induced Hyperlipidemic Rats
The compounds were tested for a hypotriglyceridemic activity in fructose-induced hyperlipidemic rats in accordance with the method described in Nippon Yakurigaku Zasshi, 92 (3), 175-180 (1988). […] 75% fructose solution as drinking water was given to the animals for 7 days, while normal water was given to the intact groups ad libitum. During the experimental period the test compounds suspended in 3% gum arabic were given to the test group orally once a day in a daily dose of 30 mg/kg. The vehicle solution was given to the control group and the intact group. After 2 hours from the final administration, blood was collected from the abdominal aorta under ether anesthesia, and levels of total cholesterol and triglyceride in the serum were measured. The reduction rate (%) was calculated according to the following equation: [formula]
Above experimental model is well known as a model of hypertriglicemia.

[4] = system: mice; test: Acute toxicity, single oral dose; format: in vivo; details: oral 2000 mg/kg, observed daily for 2 weeks
Description: The animals were observed daily for 2 weeks after the administration.

[5] = 30 mg/kg orally once a day for 7 days, minus = increase
[6] = 60 mg/kg orally once a day for 7 days, minus = increase
[7] = 120 mg/kg orally once a day for 7 days, minus = increase
[8] = 15 mg/kg orally once a day for 7 days, minus = increase
[9] = Table 4 (Example 65), 15 mg/kg p.o.

Structure (SMILES): CC(C)(Oc1ccc(CCNC(=O)c2ccc(Cl)cc2)cc1)C(=O)O [Bezafibrate, reference compound]
- Total cholesterol (% Reduction) [1, 5]: −5%
- Triglyceride (% Reduction) [1, 5]: −21%
- Total cholesterol (% Reduction) [1, 6]: −0%
- Triglyceride (% Reduction) [1, 6]: −18%
- Total cholesterol (% Reduction) [1, 7]: 20%
- Triglyceride (% Reduction) [1, 7]: 16%

Structure (SMILES): N#CN=C1NC(=O)/C(=C\c2ccc(C=Cc3ccccc3)cc2)S1 [Example 1, 2-(N-Cyanoimino)-5-[(E)-4-stylylbenzylidene]thiazolidin-4-one]
- mutagenicity (number of revertant colonies) [2]: not mutagenic
- Triglyceride (% Reduction) [3]: 47%
- single dose toxicity: deaths [4]: no deaths were observed
- Total cholesterol (% Reduction) [1, 8]: 26%
- Triglyceride (% Reduction) [1, 8]: 60%
- Total cholesterol (% Reduction) [1, 5]: 25%
- Triglyceride (% Reduction) [1, 5]: 62%
- Total cholesterol (% Reduction) [1, 6]: 29%
- Triglyceride (% Reduction) [1, 6]: 69%
- Total cholesterol (% Reduction) [1, 7]: 41%
- Triglyceride (% Reduction) [1, 7]: 80%

Structure (SMILES): CC(=Cc1ccccc1)c1ccc(/C=C2/SC(=NC#N)NC2=O)cc1 [Example 2, 2-(N-Cyanoimino)-5-[(E)-4-(a-methylstylyl)benzylidene]thiazolidin-4-one]
- Triglyceride (% Reduction) [3]: 67%
- Total cholesterol (% Reduction) [1, 9]: 27%
- Triglyceride (% Reduction) [1, 9]: 57%

Structure (SMILES): N#CN=C1NC(=O)C(=Cc2ccc(COCc3ccccc3)cc2)S1 [Example 3, 2-(N-Cyanoimino)-5-[4-(benzyloxymethyl)benzylidene]thiazolidin-4-one]
- inhibition in vivo at 30 mg/kg [3]: 64%
- Total cholesterol (% Reduction) [1, 9]: 16%
- Triglyceride (% Reduction) [1, 9]: 17%

Structure (SMILES): CC(=Cc1ccc(/C=C2/SC(=NC#N)NC2=O)cc1)c1ccccc1 [Example 4, 2-(N-Cyanoimino)-5-[(E)-4-(b-methylstylyl)benzylidene]thiazolidin-4-one]
- Triglyceride (% Reduction) [3]: 42%

Structure (SMILES): N#CN=C1NC(=O)C(=Cc2ccc(Oc3ccc(Cl)cc3)cc2)S1 [Example 6, 2-(N-Cyanoimino)-5-[4-(4-chlorophenoxy)benzylidene]thiazolidin-4-one]
- inhibition in vivo at 30 mg/kg [3]: 84%

Structure (SMILES): N#CN=C1NC(=O)C(=Cc2ccc(Sc3ccccc3)cc2)S1 [Example 7, 2-(N-Cyanoimino)-5-(4-phenylthiobenzylidene)thiazolidin-4-one]
- inhibition in vivo at 30 mg/kg [3]: 60%
- Total cholesterol (% Reduction) [1, 9]: 18%
- Triglyceride (% Reduction) [1, 9]: 12%

Structure (SMILES): N#CN=C1NC(=O)/C(=C\c2ccc(C=Cc3ccccc3F)cc2)S1 [Example 8, 2-(N-Cyanoimino)-5-[(E)-4-(2-fluorostylyl)benzylidene]thiazolidin-4-one]
- Triglyceride (% Reduction) [3]: 47%

Structure (SMILES): Cc1ccc(C)c(Oc2ccc(C=C3SC(=NC#N)NC3=O)cc2)c1 [Example 9, 2-(N-Cyanoimino)-5-[4-(2,5-dimethylphenoxy)benzylidene]thiazolidin-4-one]
- inhibition in vivo at 30 mg/kg [3]: 49%
- Total cholesterol (% Reduction) [1, 9]: 15%
- Triglyceride (% Reduction) [1, 9]: 15%

Structure (SMILES): N#CN=C1NC(=O)C(=Cc2ccc(OCCc3ccccc3)cc2)S1 [Example 10, 2-(N-Cyanoimino)-5-(4-phenethyloxybenzylidene)thiazolidin-4-one]
- inhibition in vivo at 30 mg/kg [3]: 39%
- single dose toxicity: deaths [4]: no deaths were observed

Structure (SMILES): CC(COc1ccc(C=C2SC(=NC#N)NC2=O)cc1)c1ccccc1 (stereo not shown) [Example 11, 2-(N-Cyanoimino)-5-[4-(2-phenylpropoxy)benzylidene]thiazolidin-4-one]
- inhibition in vivo at 30 mg/kg [3]: 62%

Structure (SMILES): N#CN=C1NC(=O)C(=Cc2cccc(OCCc3ccccc3)c2)S1 [Example 12, 2-(N-Cyanoimino)-5-(3-phenethyloxybenzylidene)thiazolidin-4-one]
- inhibition in vivo at 30 mg/kg [3]: 59%

Structure (SMILES): N#CN=C1NC(=O)C(=Cc2ccc(OCc3ccccc3)cc2)S1 [Example 13, 2-(N-Cyanoimino)-5-(4-benzyloxybenzylidene)thiazolidin-4-one]
- inhibition in vivo at 30 mg/kg [3]: 55%

Structure (SMILES): N#CN=C1NC(=O)C(=Cc2ccc(-c3cc4cc(Cl)ccc4o3)cc2)S1 [Example 14, 2-(N-Cyanoimino)-5-[4-(5-chlorobenzofuran-2-yl)benzylidene]thiazolidin-4-one]
- inhibition in vivo at 30 mg/kg [3]: 36%
- Total cholesterol (% Reduction) [1, 9]: 11%
- Triglyceride (% Reduction) [1, 9]: 24%

Structure (SMILES): COc1ccc(C=Cc2ccc(/C=C3/SC(=NC#N)NC3=O)cc2)cc1 [Example 15, 2-(N-Cyanoimino)-5-[(E)-4-(4-methoxystylyl)benzylidene]thiazolidin-4-one]
- Triglyceride (% Reduction) [3]: 47%
- Total cholesterol (% Reduction) [1, 9]: 32%
- Triglyceride (% Reduction) [1, 9]: 61%

Structure (SMILES): N#CN=C1NC(=O)C(=Cc2cccc(Oc3ccccc3)c2)S1 [Example 16, 2-(N-Cyanoimino)-5-(3-phenoxybenzylidene)thiazolidin-4-one]
- inhibition in vivo at 30 mg/kg [3]: 54%

Structure (SMILES): N#CN=C1NC(=O)C(=Cc2ccc(OCc3ccc4c(c3)OCO4)cc2)S1 [Example 17, 2-(N-Cyanoimino)-5-[4-(1,3-benzodioxol-5-ylmethoxy)benzylidene]thiazolidin-4-one]
- inhibition in vivo at 30 mg/kg [3]: 37%

Structure (SMILES): N#CN=C1NC(=O)C(=Cc2ccc(OCc3ccc(Cl)cc3)cc2)S1 [Example 19, 2-(N-Cyanoimino)-5-[4-(4-chlorobenzyloxy)benzylidene]thiazolidin-4-one]
- inhibition in vivo at 30 mg/kg [3]: 38%

Structure (SMILES): N#CN=C1NC(=O)C(=Cc2ccccc2OCCc2ccccc2)S1 [Example 21, 2-(N-Cyanoimino)-5-(2-phenethyloxybenzylidene)thiazolidin-4-one]
- inhibition in vivo at 30 mg/kg [3]: 48%

Structure (SMILES): N#CN=C1NC(=O)C(=Cc2ccc(Oc3ccccc3)cc2)S1 [Example 22, 2-(N-Cyanoimino)-5-(4-phenoxybenzylidene)thiazolidin-4-one]
- inhibition in vivo at 30 mg/kg [3]: 65%

Structure (SMILES): CCC(Oc1ccc(C)cc1)c1ccccc1 (stereo not shown) [Example 32]
- inhibition in vivo at 30 mg/kg [3]: 47%
